Here are results for 3 substances from patent publication US5693609A, “Acylated insulin analogs” (Eli Lilly and Company, priority 1994, dated 1997).

The subject of one assay is male rats. Conditions: 25 U/mL, cited from earlier work; for hypoglycemic effect, administered intramuscularly: intramuscularly (FIG. 6 of Hashimoto et al.); for hypoglycemic effect, administered intravenously: intravenously (FIG. 5 of Hashimoto et al.).
Another assay deals with conscious dog model. The experiment in a line: Plasma glucose after subcutaneous injection in conscious dog model. Conditions: for Plasma glucose concentration: n = 1. Type of assay: in vivo, beagles. How it is done:
Experiments were conducted in overnight-fasted, conscious, adult (1-2 years of age) male and female beagles weighing 8-15 kg. At least ten days prior to the study, animals were anesthetized with isoflurane, and a cut-down was made in the left or right inguinal region. Silastic catheters were inserted into the femoral artery and into the proximal caudal femoral vein and secured with 4-0 silk suture. The free ends of the catheters were passed subcutaneously to the back using a trocar needle. The catheters were then filled with a glycerol/heparin solution (3:1, v/v; final heparin concentration of 250 KIU/ml), and the free ends were knotted and placed in a subcutaneous pocket to allow complete closure of the skin. Keflex was administered both pre-operatively (20 mg/kg, IV and 20 mg/kg, I.M.) and post-operatively (250 mg, p.o. once daily for seven days) to prevent infections. Torbugesic (1.5 mg/kg, I.M.) was administered post-operatively to control pain. Blood was drawn just prior to the study day to determine the health of the animal. Only animals with hematocrits above 38% and leukocyte counts below 16,000/mm^3 were used. The afternoon before the experiment, the free ends of the catheters were exteriorized from the subcutaneous pocket through a small incision made under local anesthesia (2% lidocaine), and the dog was fitted with a tether system jacket and collar assembly. The morning of the experiment, the contents of the arterial catheter were aspirated (only the arterial line was used in these studies), the catheter was flushed with saline, and an extension line (protected by a stainless steel tether) was attached to the catheter. The dog was placed in a metabolic cage, and the catheter extension line and tether was attached to a swivel system to allow the dog to move freely about the cage. After a 15 minute rest period (45 minutes, controls), blood (2-3.5 ml) was drawn for determination of the plasma glucose concentration. A second baseline sample was drawn 15 minutes later (0 time). Test substance (phosphate buffered saline or […] of B28-N^ε -Palmitoyl Lys^B28 Pro^B29 -human insulin; this does is the molar equivalent of 1.75 U/kg of human insulin) was administered subcutaneously in the dorsal of the neck.
Arterial blood samples (2-3.5 ml) were then taken at least every 30 minutes for the next two (controls) to six (B28-N^ε -palmitoyl Lys^B28 Pro^B29 -human insulin) hours. Samples were collected in vacuum blood collection tubes containing disodium EDTA and immediately placed on ice. The samples were centrifuged, and the resulting plasma was transferred to polypropylene test tubes and stored on ice or refrigerated for the duration of the study.
At the conclusion of the experiment, the animal was anesthetized (isoflurane); the catheter was flushed with fresh saline and filled with the glycerol/heparin mixture; the free end of the catheter was knotted and placed subcutaneously as described earlier; and antibiotic was administered (300 mg Keflex, I.M.). Plasma glucose concentrations were determined the day of the study using a glucose oxidase method in a Beckman glucose analyzer. Values are listed as the mean ± the standard error of the mean (SEM).

As for B1-N^α -palmitoyl insulin, in the assay with male rats, the “hypoglycemic effect, administered intramuscularly” value is listed as “only a short hypoglycemic effect” and the “hypoglycemic effect, administered intravenously” value is “very low activity”.

For the substance “B1,B29-N^α N^ε -dipalmitoyl insulin [B1,B29-Nα, N^ε -dipalmitoyl insulin]”, in the assay with male rats, the “hypoglycemic effect, administered intramuscularly” value is recorded as “negligible effect” and the “hypoglycemic effect, administered intravenously” value is given as “very low activity”.

For “B28-N^ε -Palmitoyl Lys^B28 Pro^B29 -human insulin”, the Plasma glucose concentration in the assay on conscious dog model (30 minutes after 10.5 subcutaneously) is 114 mg/dL; with conscious dog model (60 minutes after 10.5 subcutaneously), 107 mg/dL; with conscious dog model (90 minutes after 10.5 subcutaneously), 102 mg/dL; in the assay on conscious dog model (120 minutes after 10.5 subcutaneously) it was 99 mg/dL; in the assay with conscious dog model (150 minutes after 10.5 subcutaneously), 101 mg/dL; in the assay with conscious dog model (180 minutes after 10.5 subcutaneously), 100 mg/dL. The Plasma glucose concentration in the assay on conscious dog model (210 minutes after 10.5 subcutaneously) amounted to 100 mg/dL; in the assay with conscious dog model (240 minutes after 10.5 subcutaneously), 98 mg/dL; in the assay with conscious dog model (270 minutes after 10.5 subcutaneously), 87 mg/dL; in the assay with conscious dog model (300 minutes after 10.5 subcutaneously) it was 82 mg/dL; with conscious dog model (330 minutes after 10.5 subcutaneously) it was 79 mg/dL; with conscious dog model (360 minutes after 10.5 subcutaneously), 75 mg/dL. For the same substance, the Plasma glucose concentration was 116 mg/dL in the assay on conscious dog model (time 0 minutes (baseline), overnight-fasted dog) and 116 mg/dL with conscious dog model (time -15 minutes (baseline, before injection), overnight-fasted dog). Also, the “decrease in the plasma glucose concentration” value in the assay with conscious dog model (six hours post-injection, vs baseline) is 35%. In addition, the “activity in conscious dog model (in words)” value with conscious dog model (subcutaneous, 10.5) was “insulin-like activity”.
